Experimental data published in US20210030703A1, “USE OF CALORIC RESTRICTION MIMETICS FOR POTENTIATING CHEMO-IMMUNOTHERAPY FOR THE TREATMENT OF CANCERS” (INSERM (INSTITUT NATIONAL DE LA SANTÉ ET DE LA RECHERCHE …, priority 2018, published 2021).

How the values were obtained:
[1] = tested on: immune infiltrate of MCA205 tumors; assay: Immunophenotyping of the tumor immune infiltrate by flow cytometry; type: in vivo, C57B1/6 mice; details: for Density of CD45+ leukocytes in the tumor: day 11 post-chemotherapy
Description: 3 or 11 days post-chemotherapy (d3 or d11), mice were euthanized and the tumors were withdrawn and placed in gentleMACS C tubes (ref 130-096-334 from Miltenyi BiotecTM) previously filled with 1 ml of DMEM or RPMI medium, and immediately put on ice. […] Then, cells were stained with a live dead dye (ref L34959 from ThermoFisher ScientificTM) and an FCblock receptor targeting antibody. For the surface stainings, several anti-mouse fluorochrome-coupled antibodies were employed, that were for 1) myeloid cells “staining 1”: anti-CD45 APC-Fire750 (clone 30E-11, ref 130154 BiolegendTM), anti-Ly-6G PE (clone 1A8, ref 551461 BDTM), anti-Ly-6C FITC (clone AL-21, ref 553104, BDTM), anti-CD11b V450 (clone M1/70, ref 560455 BDTM), anti-CD11c PE-Cy7 (clone HL3, ref 558470 BDTM), anti-CD80 PerCP-Cy5.5 (16-10A1, ref 104722 BiolegendTM), and anti-MHC-II APC (clone M5/114.15.2, ref 107614 BiolegendTM) 2) T-cells “staining 2”: anti-CD3 APC (clone 17A2, ref 17-0032-82 eBioscienceTM), anti-CD8 PE (clone 53-6.7, ref 553032 BDTM), anti-CD4 PerCP-Cy5.5 (clone RM4-5, ref 45-0042-82 eBioscienceTM), anti-CD25 PE-Cy7 (clone PC61.5, ref 25-0251-82 InvitrogenTM), anti-ICOS BV421 (clone 7E.17G9, ref 564070 BDTM) and anti-PD-1 APC-Fire750 (clone 29F.1Al2, ref 135240 BiolegendTM) 3) PD-L1 expressing-cells “staining 4”: anti-CD45 AlexaFluor647 (clone 30E-11, ref 103-124 BiolegendTM), anti-PD-L1 BV421 (clone MIHS, ref 564716 BDTM) and anti-PD-L2 PE-Dazzle594 (clone TY25, ref 107215 BiolegendTM) 4) NKT cells “staining 5”: anti-CD3 FITC (clone 17A2, ref 11-00-32-82 eBioscienceTM) and anti-NK1.1 PerCP-Cy5.5 (clone PK136, ref 551114 BDTM). After the fixation and permeabilization of the cells (thanks to the Cytofix/Cytoperm kit, ref 554714 BDTM for stainings 1, 3, 4 and 5; and with the Foxp3/Transcription Factor kit, ref 00-5523-00 eBioscienceTM for staining 2), intracellular stainings were performed using for “staining 2”: anti-FoxP3 FITC (clone FJK-16s, ref 11-5773-82 eBioscienceTM) and for “staining 3”: anti-IFNg APC (clone XMG1.2, ref 505-810 BiolegendTM), anti-TNFα APC-Cy7 (clone MP6-XT22, ref 506344 BiolegendTM) and anti-IL-2 PE-Dazzle 594 (clone JES6-5H4, ref 503-840 BiolegendTM). Finally, cells were resuspended in FACS buffer and analyzed on a flow cytometer BD LSR II.

PD-L1 = PD-L1 expression on CD45+/- tumor infiltrating cells; type: in vivo, C57B1/6 mice
Excerpt: WT 9 weeks old C57B1/6 mice were subcutaneously injected with MCA205 WT fibrosarcoma cells. When tumors became palpable, mice underwent two days of fasting (d-2 to d0). HC treatment in drinking water began the day after (d-1), followed by chemotherapy with MTX (d0). 11 days post-chemotherapy, mice were sacrified and tumors were collected, dissociated, filtrated and stained with panel 3 antibodies. The results are represented as percentage among viable cells. […] The data shown represent a pool of two independent experiments sharing all the groups. Statistical analysis were realized using ordinary one-way ANOVA. ****p<0.001, ***p<0.005, **p<0.01, *p<0.05.
3 or 11 days post-chemotherapy (d3 or d11), mice were euthanized and the tumors were withdrawn and placed in gentleMACS C tubes (ref 130-096-334 from Miltenyi Biotec™) previously filled with 1 ml of DMEM or RPMI medium, and immediately put on ice. After a mechanical (with scissors) and chemical digestion (thanks to the tumor dissociation kit and the gentleMACS Octo Dissociator, ref 130-096-730 and 130-096-427, respectively, from Miltenyi Biotec™), tumors were filtered (using MACS smartstrainers […], ref 130-110-916 from Miltenyi Biotec™), washed twice with PBS and distributed in a 96-wells round bottom plate.
Then, cells were stained with a live dead dye (ref L34959 from ThermoFisher Scientific™) and an FCblock receptor targeting antibody. […] Finally, cells were resuspended in FACS buffer and analyzed on a flow cytometer BD LSR II.

[2] = day 11 post-MTX, data not shown

Row | SMILES | Increase in the density of total CD3+ and CD8+ T cell infiltrate ([1]; combined with MTX, data not shown) | Myeloid infiltrate ([1]; day 3 post-chemotherapy (MTX), data not shown) | Granulocyte infiltration (Ly6C+Ly6Ghi) [1, 2] | Monocytic dendritic cell subpopulation with activation markers (Ly6G-Ly6ChiCD11b+CD11c+CD80+MHC-IIhi) [1, 2] | Density of CD45+ leukocytes in the tumor ([1]; MTX-treated animals that received HC) | Effect of co-treatment on MTX-induced PD-L1 upregulation (PD-L1; FIG. 8A-D) | Density of CD45+ leukocytes in the tumor ([1]; MTX-treated cancers) | PD-L1 on non-leukocytes from the cancer (CD45- cells, mostly malignant cells) (PD-L1; MCA205 tumor-bearing mice treated with MTX (FIG. 8A, B)) | PD-L1 in leukocytes expressing CD11b (PD-L1; MCA205 tumor-bearing mice treated with MTX (FIG. 8C, D)) | Percentage of CD45- PD-L1+ cells (PD-L1; MTX alone or in combination with NF or HC, 11 days post-chemotherapy (FIG. 8A)) | Mean fluorescent intensity of PD-L1 on CD45- cells (PD-L1; MTX alone or in combination with NF or HC, 11 days post-chemotherapy (FIG. 8B)) | Percentage of CD45+ PD-L1+ cells (PD-L1; MTX alone or in combination with NF or HC, 11 days post-chemotherapy (FIG. 8C)) | Mean fluorescent intensity (D) of PD-L1 on CD45- cells (PD-L1; MTX alone or in combination with NF or HC, 11 days post-chemotherapy (FIG. 8D))
1 | O=C(O)CC(O)(C(=O)O)C(O)C(=O)O (stereo not shown) [HC, hydroxycitrate] | neither HC nor spermidine | no major increments | increase | increase | more so | not altered |  |  |  |  |  |  | 
2 | O=C1c2c(O)ccc(O)c2C(=O)c2c(NCCNCCO)ccc(NCCNCCO)c21 [MTX, mitoxantrone] |  |  |  |  |  |  | higher density | upregulation | upregulation | increases | increases | increases | increases
